In brackets after ≈: the same amount, converted by molar mass. Read-outs that look alike come from different tables or passages of the source.
Key:
C. neoformans [1] = test: Broth microdilution susceptibility testing (CLSI M27-A3); assay type: cell-based, Cryptococcus neoformans; details: for MIC: Cryptococcus neoformans
Text: (§1) C. neoformans strains H99, DUMC 118.00, and DUMC 158.03 and C. gattii strains R272 and RSA-MW-3515 were obtained from Duke University. C. albicans 90028, A. fumigatus MYA3626, C. neoformans 14116, C. neoformans 76484, and the pathogenic Cryptococcus reference strains panel (ATCC MP-11) were obtained from the American Type Culture Collection (ATCC; Manassas, VA, USA). The ATCC MP-11 panel consists of strains representing eight molecular types and three subtypes of C. neoformans and C. gattii.
(§2) To establish the antimicrobial activity of the APX001A analogs, broth microdilution susceptibility testing was performed according to Clinical and Laboratory Standards Institute (CLSI) guidelines M27-A3 ([47]) for yeasts and M38-A2 for molds ([48]). APX001A and analogs were first diluted in DMSO to obtain intermediate dilutions. These were further diluted in microtiter plates to obtain a final concentration of 2 to 0.002 μg/ml. One microliter of DMSO was added to the no-drug control wells. The solutions were mixed on a plate shaker for 10 min, and the plates were incubated at 35°C for 40 to 48 h (C. albicans, A. fumigatus) and 72 h (C. neoformans). The minimum concentration that led to a 50% reduction in fungal growth compared to that for the control (determined with the aid of a reading mirror) was determined as the MIC for C. albicans and C. neoformans. The minimum concentration that led to the shortening of hyphae compared to the hyphal growth in DMSO control wells was determined as the minimum effective concentration (MEC) for A. fumigatus (as read for the echinocandins). The use of the MIC and MEC endpoints for APX001A (formerly E1210) against yeasts and molds, respectively, has been described previously ([19][–][21]). For the cryptococcal synergy studies, APX001A and APX2020 MIC values were read at 50% inhibition.

C. gattii = test: as above; assay type: cell-based; details: Cryptococcus gattii
Text: as §1, §2

C. albicans 90028 = test: as above; assay type: cell-based, Candida albicans
Text: as §1, §2

A. fumigatus MYA3626 = test: Broth microdilution susceptibility testing for molds (CLSI M38-A2); assay type: cell-based
Text: as §1, §2

[2] = system: FLC-susceptible and FLC-nonsusceptible/resistant strains of C. neoformans and C. gattii; test: Broth microdilution, summary over the 18-strain Cryptococcus collection; assay type: cell-based, Cryptococcus neoformans and Cryptococcus gattii; details: for MIC90 / MIC: 18 strains of C. neoformans and C. gattii; for MIC: read-out: Geometric mean MIC
Method: as §2, with “The minimum concentration that led to the shortening of hyphae compared to the hyphal growth in DMSO control wells was determined as the minimum effective concentration (MEC) for A. fumigatus (as read for the echinocandins).” left out

[3] = Single-dose mouse pharmacokinetics of prodrugs with or without ABT; assay type: in vivo; details: for Ratio of AUC with ABT/AUC without ABT, i.p. dosing / Ratio of AUC with ABT/AUC without ABT, p.o. dosing: 26 mg/kg prodrug; for AUC: male, CD-1, mouse, plasma, 26 mg/kg
Method: The area under the curve (AUC) was calculated from time zero to the time of the last measurable concentration. The active metabolite concentrations in plasma (APX001A, APX2039, APX2020, and APX2041) were determined by liquid chromatography-tandem mass spectrometry. PK parameters were determined using Phoenix WinNonlin (v7.0) software and a noncompartmental model.

C. neoformans [4] = system: C. neoformans; parameters: method as in PMID 15078612; details: U.S. isolates; cited from earlier work
C. neoformans strain H99 = test: Murine cryptococcal meningitis model with ABT, dose-response study; assay type: in vivo, Cryptococcus neoformans; details: control animals with daily 100-mg/kg ABT without an APX compound
Method: A dose-response study was performed with APX2096 and APX2097 to confirm the observed activity. In this study, QD doses of 7.5, 20, and 60 mg/kg were evaluated in conjunction with the administration of ABT. A 60-mg/kg dose QD without ABT was also evaluated as a control.
FIG 3 Dose-response of APX2096 and APX2097 in a murine model of cryptococcal meningitis in conjunction with ABT administration. ABT at 100 mg/kg was administered orally to male CD-1 mice at 2 h prior to each APX compound dose. Mice were injected with 4.8 × 10^4 CFU C. neoformans strain H99 per mouse via the lateral tail vein at time zero. Treatment with the APX compounds was initiated at 1 h postinfection by i.p. administration and continued for 7 days, with 100-mg/kg ABT being administered orally 2 h prior to each APX compound dose. The correction factors for prodrug potencies versus the potencies of the active moieties were similar enough such that the same factor (1.3) was used for all APX compounds. Fungal burden data were log10 transformed and evaluated using Kruskal-Wallis tests with Dunn's multiple-comparison test for post hoc analysis (Prism software, v5; GraphPad Software, Inc., San Diego, CA). […] A P value of ≤0.05 was considered statistically significant (*, P ≤ 0.05; **, P ≤ 0.01; ***, P ≤ 0.001). The 95% confidence interval (CI) is presented.
C. neoformans strain H99 was grown in yeast extract-peptone-dextrose broth at 30°C on a shaker (220 rpm) for 24 h, centrifuged (1,980 relative centrifugal force), and washed twice in phosphate-buffered saline (PBS), resuspended in PBS, and quantified by hemacytometric count. Male CD-1 mice were infected with ∼5 × 10^4 CFU per mouse via lateral tail vein injection of 100 μl. Mice were weighed, and treatment was begun within 1 h after infection. Treatments were administered daily for 7 days. Mice were weighed daily and observed for acute and chronic adverse symptoms. Mice were sacrificed on day 8, and the brain and left lung were homogenized and cultured for quantitative determination of the tissue burden (number of CFU per gram of tissue). Tissues were homogenized for 25 s in 1 ml phosphate-buffered saline using two 6.5-mm steel beads and a Mini-Beadbeater 16 apparatus (Biospec Products, Inc., Bartlesville, OK) and serially diluted in 10-fold steps. Aliquots (100 μl) of homogenate were plated and incubated for 3 to 7 days at 37°C. Fungal burden data were log10 transformed and evaluated using Kruskal-Wallis tests with Dunn's multiple-comparison test for post hoc analysis (Prism software, v5; GraphPad Software, Inc., San Diego, CA). A P value of ≤0.05 was considered statistically significant.

[5] = 72 h, Table 1, 50% growth inhibition for FLC, caspofungin and APX compounds, 100% for AMB, 72 h, read-out: MIC, C. neoformans H99
[6] = C. neoformans isolate 14116, read-out: MIC
[7] = C. neoformans isolate 76484, read-out: MIC
[8] = C. neoformans isolate DUMC 118.00 (FLC resistant), read-out: MIC
[9] = C. neoformans isolate DUMC 158.03 (FLC resistant), read-out: MIC
[10] = C. neoformans isolate MYA-4564, read-out: MIC
[11] = C. neoformans isolate MYA-4565, read-out: MIC
[12] = C. neoformans isolate MYA-4566, read-out: MIC
[13] = C. neoformans isolate MYA-4567, read-out: MIC
[14] = Table 2, C. neoformans isolate H99, read-out: MIC
[15] = C. gattii isolate MYA-4093, read-out: MIC
[16] = C. gattii isolate MYA-4094, read-out: MIC
[17] = C. gattii isolate MYA-4560 (first listing, r17), read-out: MIC
[18] = C. gattii isolate MYA-4560 (second listing, r21), read-out: MIC
[19] = C. gattii isolate MYA-4561, read-out: MIC
[20] = C. gattii isolate MYA-4562, read-out: MIC
[21] = C. gattii isolate MYA-4563, read-out: MIC
[22] = C. gattii isolate MYA-4877, read-out: MIC
[23] = C. gattii isolate RSA-MW-3615 (FLC resistant), read-out: MIC
[24] = Table 1, 50% growth inhibition for FLC, caspofungin and APX compounds, 100% for AMB, read-out: MIC, C. gattii WM276
[25] = Candida albicans, 90028; read-out: MIC, C. albicans 90028
[26] = Aspergillus fumigatus, MYA3626; read-out: MIC or MEC for A. fumigatus MYA3626
[27] = intraperitoneal, AUC of analyte after 26 mg/kg prodrug, 100 mg/kg ABT orally 2 h before, read-out: Avg AUC resulting from 26-mg/kg dose, i.p. dosing + ABT
[28] = ip, AUC of analyte after 26 mg/kg of the corresponding prodrug, male CD-1 mice, no ABT, read-out: Avg AUC resulting from 26-mg/kg dose, i.p. dosing
[29] = po, AUC of analyte after 26 mg/kg prodrug, 100 mg/kg ABT orally 2 h before, read-out: Avg AUC resulting from 26-mg/kg dose, p.o. dosing + ABT
[30] = po, AUC of analyte in plasma after 26 mg/kg of the corresponding prodrug, male CD-1 mice, no ABT, read-out: Avg AUC resulting from 26-mg/kg dose, p.o. dosing

## Nc1ncccc1-c1cc(Cc2ccc(OCc3ccccc3)nc2)no1 [APX2041]
C. neoformans [1]; [5]
  MIC: 0.031 µg/mL
C. neoformans [1]; [6]
  MIC: 0.016 µg/mL
C. neoformans [1]; [7]
  MIC: 0.016 µg/mL
C. neoformans [1]; [8]
  MIC: 0.063 µg/mL
C. neoformans [1]; [9]
  MIC: 0.125 µg/mL
C. neoformans [1]; [10]
  MIC: 0.016 µg/mL
C. neoformans [1]; [11]
  MIC: 0.125 µg/mL
C. neoformans [1]; [12]
  MIC: 0.063 µg/mL
C. neoformans [1]; [13]
  MIC: 0.031 µg/mL
C. neoformans [1]; [14]
  MIC: 0.031 µg/mL
C. gattii; [15]
  MIC: 0.125 µg/mL
C. gattii; [16]
  MIC: 0.063 µg/mL
C. gattii; [17]
  MIC: 0.016 µg/mL
C. gattii; [18]
  MIC: 0.016 µg/mL
C. gattii; [19]
  MIC: 0.031 µg/mL
C. gattii; [20]
  MIC: 0.031 µg/mL
C. gattii; [21]
  MIC: 0.031 µg/mL
C. gattii; [22]
  MIC: 0.016 µg/mL
C. gattii; [23]
  MIC: 0.016 µg/mL
C. gattii; [24]
  MIC: 0.016 µg/mL
C. albicans 90028; [25]
  MIC: 0.031 µg/mL
A. fumigatus MYA3626; [26]
  MIC: 0.016 µg/mL
[2]
  MIC90: 0.125 µg/mL
  MIC: 0.034 µg/mL
[3]
  Ratio of AUC with ABT/AUC without ABT, i.p. dosing: 15.5
  Ratio of AUC with ABT/AUC without ABT, p.o. dosing: 14.3
[3]; [27]
  AUC: 72600 ± 9070 ng·h/mL
[3]; [28]
  AUC: 4680 ± 730 ng·h/mL
[3]; [29]
  AUC: 49900 ± 10300 ng·h/mL
[3]; [30]
  AUC: 3490 ± 270 ng·h/mL

## Nc1ncccc1-c1cc(Cc2ccc(Oc3cccc(F)n3)cc2)no1 [APX2039]
C. neoformans [1]; [5]
  MIC: 0.008 µg/mL
C. neoformans [1]; [6]
  MIC: 0.004 µg/mL
C. neoformans [1]; [7]
  MIC: 0.004 µg/mL
C. neoformans [1]; [8]
  MIC: 0.016 µg/mL
C. neoformans [1]; [9]
  MIC: 0.031 µg/mL
C. neoformans [1]; [10]
  MIC: 0.004 µg/mL
C. neoformans [1]; [11]
  MIC: 0.031 µg/mL
C. neoformans [1]; [12]
  MIC: 0.008 µg/mL
C. neoformans [1]; [13]
  MIC: 0.016 µg/mL
C. neoformans [1]; [14]
  MIC: 0.004 µg/mL
C. neoformans [1]; from MIC values of Table 1
  fold improved anti-C. neoformans H99 activity vs APX001A: 32 fold
C. gattii; [15]
  MIC: 0.016 µg/mL
C. gattii; [16]
  MIC: 0.016 µg/mL
C. gattii; [17]
  MIC: 0.008 µg/mL
C. gattii; [18]
  MIC: 0.008 µg/mL
C. gattii; [19]
  MIC: 0.016 µg/mL
C. gattii; [20]
  MIC: 0.016 µg/mL
C. gattii; [21]
  MIC: 0.016 µg/mL
C. gattii; [22]
  MIC: 0.008 µg/mL
C. gattii; [23]
  MIC: 0.004 µg/mL
C. gattii; [24]
  MIC: 0.004 µg/mL
C. albicans 90028; [25]
  MIC: 0.031 µg/mL
A. fumigatus MYA3626; [26]
  MIC: 0.125 µg/mL
[2]
  MIC90: 0.031 µg/mL
  MIC: 0.01 µg/mL
[2]; Table 1 strains H99 and WM276
  fold lower MIC values than APX001A versus Cryptococcus: 32 fold
[3]
  Ratio of AUC with ABT/AUC without ABT, i.p. dosing: 8.3
  Ratio of AUC with ABT/AUC without ABT, p.o. dosing: 8.6
[3]; [27]
  AUC: 97200 ± 12600 ng·h/mL
[3]; [28]
  AUC: 11800 ± 1830 ng·h/mL
[3]; [29]
  AUC: 91300 ± 20800 ng·h/mL
[3]; [30]
  AUC: 10700 ± 480 ng·h/mL
[3]; oral administration of prodrug with ABT
  fold higher exposure than the three other compounds: approximately 2 fold
[3]; prodrugs administered i.p.
  fold higher AUC than the other compounds: approximately 2 fold

## CCC(C)n1ncn(-c2ccc(N3CCN(c4ccc(OCC5COC(Cn6cncn6)(c6ccc(Cl)cc6Cl)O5)cc4)CC3)cc2)c1=O (centres unmarked) [itraconazole]
C. neoformans [4]
  MIC90: 0.125 µg/mL (≈ 0.177 µM)

## Nn1nnc2ccccc21 [ABT, 1-Aminobenzotriazole, reference compound]
C. neoformans strain H99
  mean counts in brain tissue: 8.07 ± 0.28 log10 CFU/g
  mean counts in lung tissue: 7.04 ± 0.34 log10 CFU/g

## Nc1[nH]c(=O)ncc1F [flucytosine]
C. neoformans [4]
  MIC90: 8 µg/mL (≈ 62 µM)

## CC[C@H](C)C[C@H](C)CCCCCCCCC(=O)N[C@H]1C[C@@H](O)[C@@H](NCCN)NC(=O)[C@@H]2[C@@H](O)CCN2C(=O)[C@H]([C@H](O)CCN)NC(=O)[C@H]([C@H](O)[C@@H](O)c2ccc(O)cc2)NC(=O)[C@@H]2C[C@@H](O)CN2C(=O)[C@H]([C@@H](C)O)NC1=O [CAS, caspofungin, reference compound]
C. albicans 90028; Candida albicans, 90028, read-out: MIC, C. albicans 90028
  MIC: 0.5 µg/mL
A. fumigatus MYA3626; Aspergillus fumigatus, MYA3626, read-out: MIC or MEC for A. fumigatus MYA3626
  MIC: 0.25 µg/mL

## CC(=O)N1CCN(c2ccc(OCC3COC(Cn4ccnc4)(c4ccc(Cl)cc4Cl)O3)cc2)CC1 (centres unmarked) [ketoconazole]
C. neoformans [4]
  MIC90: 0.06 µg/mL (≈ 0.113 µM)

Source: paper PMC6105804, “In Vitro and In Vivo Evaluation of APX001A/APX001 and Other Gwt1 Inhibitors against Cryptococcus” (Antimicrobial Agents and Chemotherapy, 2018)
